Assay results published in ChEMBL document CHEMBL3272323, “1-Halobenzyl-1H-indazole-3-carboxylic acids. A new class of antispermatogenic agents” (1976).
Activity calls are given as the source filed them. The calls are words filed in the database; no cut-off is given here.

system: Rattus norvegicus; assay: Antispermatogenic activity in Long-Evans rat assessed as reduction of testes weight at a dose equimolecular to 400 mg/kg of 1-(4-chlorobenzyl)-1H-indazole-3-carboxylic acid administered orally as single dose measured after 5 days; format: functional, organism-based; parameters: dose 400 mg/kg; details: Testis

Row | SMILES | Activity
1 | Cc1cc(Cl)ccc1Cn1nc(-c2nnn[nH]2)c2ccccc21 | inactive
2 | Cc1nn(Cc2ccc(Cl)cc2)c2ccccc12 | inactive
3 | Clc1ccc(Cn2nc(-c3nnn[nH]3)c3ccccc32)cc1 | inactive
4 | Cc1ccc2c(c1)c(C(=O)O)nn2Cc1ccc(Cl)cc1 | inactive
5 | Clc1ccc(Cn2ncc3ccccc32)cc1 | inactive
6 | O=C(NCCCCCCCCNC(=O)C(Cl)Cl)C(Cl)Cl | inactive
7 | CCOC(=O)c1nn(Cc2ccc(Cl)cc2)c2ccccc12 | inactive
8 | N#Cc1nn(Cc2ccc(Cl)cc2)c2ccccc12 | inactive
9 | Cc1ccc(Cn2nc(C(=O)O)c3ccccc32)cc1 | inactive
10 | O=C(O)c1nn(Cc2ccc(S(=O)(=O)c3ccccc3)cc2)c2ccccc12 | inactive
11 | CC(=O)c1nn(Cc2ccc(Cl)cc2)c2ccccc12 | inactive
12 | CS(=O)(=O)c1ccc(Cn2nc(C(=O)O)c3ccccc32)cc1 | inactive
13 | O=C(O)c1nn(Cc2ccc(Cl)c3ccccc23)c2ccccc12 | inactive
14 | O=C(O)c1nn(Cc2cccc(C(F)(F)F)c2)c2ccccc12 | inactive
15 | Cc1cccc(Cn2nc(C(=O)O)c3ccccc32)c1 | inactive
16 | O=C(O)c1nn(S(=O)(=O)c2ccc(Cl)cc2)c2ccccc12 | inactive
17 | O=C(O)c1nn(Cc2ccc(Cl)cc2)c2ccc(Cl)cc12 | inactive
18 | O=C(c1ccccc1)c1cccc(Cn2nc(C(=O)O)c3ccccc32)c1 | inactive
19 | O=C(O)CCc1nn(Cc2ccc(Cl)cc2)c2ccccc12 | inactive

Row | SMILES | Activity
20 | O=C(O)c1cc2ccccc2n1Cc1ccc(Cl)cc1 | inactive
21 | Nc1nn(Cc2ccc(Cl)cc2)c2ccccc12 | inactive
22 | OCc1nn(Cc2ccc(Cl)cc2)c2ccccc12 | inactive
23 | O=C(O)c1cn(Cc2ccc(Cl)cc2)c2ccccc12 | inactive
24 | O=C(Cn1nc(C(=O)O)c2ccccc21)c1ccc(Cl)cc1 | inactive
25 | O=C(O)c1ccccc1NCc1ccc(Cl)cc1 | inactive
26 | Cc1c(C(=O)O)c2ccccc2n1Cc1ccc(Cl)cc1 | inactive
27 | COc1ccc2c(c1)c(C(=O)O)nn2Cc1ccc(Cl)cc1 | inactive
28 | COC(=O)c1nn(Cc2ccc(Cl)cc2)c2ccccc12 | inactive
29 | O=C(O)c1nn(C(=O)c2ccc(Cl)cc2)c2ccccc12 | inactive
30 | O=C(O)c1ccccc1NCc1cccc2ccccc12 | inactive
31 | O=C(O)c1nn(Cc2c(Cl)cccc2Cl)c2ccccc12 | inactive
32 | N#Cc1ccc(Cn2nc(C(=O)O)c3ccccc32)cc1 | inactive
33 | O=C(O)c1nn(-c2ccc(Cl)cc2)c2ccccc12 | inactive
34 | O=C(O)c1nn(Cc2ccc(Cl)cc2)c2ccc(O)cc12 | inactive
35 | Clc1ccc(CCn2nc(-c3nnn[nH]3)c3ccccc32)cc1 | inactive
36 | Sc1nn(Cc2cccc(Cl)c2)c2ccccc12 | inactive
37 | Clc1ccc(Cn2nc(-c3nnn[nH]3)c3ccccc32)c(Cl)c1 | inactive

system: Rattus norvegicus; assay: Antispermatogenic activity in po dosed Long-Evans rat assessed as reduction of testes weight administered as single dose measured after 5 days; format: functional; details: Testis, 120 h, read-out: MED

Row | SMILES | minimal effective dose [mg/kg]
38 | O=C(OCC(O)CO)c1nn(Cc2ccc(Cl)cc2Cl)c2ccccc12 (stereo not drawn) | 69
39 | O=C(O)c1nn(Cc2cccc(Cl)c2)c2ccccc12 | 400
40 | O=C(O)c1nn(Cc2cc(Cl)c(Cl)cc2Cl)c2ccccc12 | 248
41 | O=C(O)c1nn(Cc2ccccc2Cl)c2ccccc12 | 200
42 | O=C(O)c1nn(Cc2ccc(Br)cc2)c2ccccc12 | 231
43 | O=C(OCC(O)CO)c1nn(Cc2ccccc2Cl)c2ccccc12 (stereo not drawn) | 503
44 | Cc1cc(Cl)ccc1Cn1nc(C(=O)O)c2ccccc21 [TOLNIDAMINE] | 52
45 | O=C(OCCO)c1nn(Cc2ccc(Cl)cc2)c2ccccc12 | 486
46 | O=C(O)c1nn(Cc2ccc(Cl)cc2Cl)c2ccccc12 [LONIDAMINE] | 56
47 | O=C(O)Cc1nn(Cc2ccc(Cl)cc2)c2ccccc12 | 419
48 | O=C(OC(CO)CO)c1nn(Cc2ccc(Cl)cc2)c2ccccc12 | 503
49 | O=C(OCC(O)CO)c1nn(Cc2ccc(Cl)cc2)c2ccccc12 (stereo not drawn) | 503
50 | O=C(O)c1nn(Cc2ccc(Cl)cc2)c2ccccc12 | 400
51 | Cc1ccccc1Cn1nc(C(=O)O)c2ccccc21 | 186
52 | O=C(OCC(O)CO)c1nn(Cc2cc(Cl)c(Cl)cc2Cl)c2ccccc12 (stereo not drawn) | 300
53 | O=C(O)c1nn(Cc2ccc(Cl)c(Cl)c2)c2ccccc12 | 448
54 | Cc1ccc(Cn2nc(C(=O)O)c3ccccc32)c(C)c1 [XINIDAMINE] | 101
55 | O=C(O)c1nn(Cc2ccc(F)cc2)c2ccccc12 | 377
56 | O=C(O)c1nn(Cc2ccc(I)cc2)c2ccccc12 | 528
57 | O=C(O)c1nn(Cc2ccc(Br)cc2Br)c2ccccc12 | 76.5
58 | NC(=O)c1nn(Cc2ccc(Cl)cc2)c2ccccc12 | 399
